Laboratory results reported in patent US20100249093A1, “Substituted Heteroarylpiperidine Derivatives As Melanocortin-4 Receptor Modulators” (SANTHERA PHARMACEUTICALS (SCHWEIZ) AG, priority 2007, published 2010).

Assays:
[1] = biological target: T1, human melanocortin-4 receptor (MC-4R) (Homo sapiens, UniProt P32245); assay: Functional assay: agonistic activity, cAMP production in membrane preparations compared with NDP-alpha-MSH, fluorescence polarization; type: biochemical; settings: for Emax: cAMP produced compared to stimulation with NDP-alpha-MSH, read-out: % activation functional assay
T1 construct: expressed in transfected cells; host or cells: HEK293

[2] = biological target: T1, human melanocortin-4 receptor (MC-4R); assay: Membrane binding assay: competition with fluorescence labeled NDP-alpha-MSH, fluorescence polarization; settings: HEK293 cell membrane preparations expressing human MC-4R, read-out: hMC-4R binding assay IC50

T1 sequence (P32245 whole entry): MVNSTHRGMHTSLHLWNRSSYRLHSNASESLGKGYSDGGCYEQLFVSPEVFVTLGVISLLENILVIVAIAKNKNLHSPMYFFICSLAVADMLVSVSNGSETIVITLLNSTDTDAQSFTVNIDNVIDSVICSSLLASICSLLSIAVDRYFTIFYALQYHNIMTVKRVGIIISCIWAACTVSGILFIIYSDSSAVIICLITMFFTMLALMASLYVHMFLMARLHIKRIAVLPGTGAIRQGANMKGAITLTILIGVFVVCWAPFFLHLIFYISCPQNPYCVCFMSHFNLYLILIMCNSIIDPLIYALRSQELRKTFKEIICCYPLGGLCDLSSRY

| SMILES | Emax [1] [%] | IC50 [2] [nM] | EC50 ([1]; cAMP production, membrane preparations from HEK293 cells expressing human MC-4R, read-out: hMC-4R functional assay EC50) [nM] |
| --- | --- | --- | --- |
| CC[C@H](COc1cccnc1C1CCN(C(=O)[C@@H](Cc2ccc(Cl)cc2Cl)NC(=O)N2CCC[C@@H]2C(C)(C)O)CC1)N(C)C [Example 121] | -6 | ≤ 100 | – |
| CC[C@H](COc1cccnc1C1CCN(C(=O)[C@@H](Cc2ccc(Cl)cc2Cl)NC(=O)N2CC(O)(C(C)C)C2)CC1)N(C)C [Example 122] | 0 | ≤ 100 | – |
| CC[C@H](COc1cccnc1C1CCN(C(=O)[C@@H](Cc2ccc(Cl)cc2Cl)NC(=O)N2CC(O)(C3CC3)C2)CC1)N(C)C [Example 123] | 3 | ≤ 100 | – |
| CC[C@H](COc1cccnc1C1CCN(C(=O)[C@@H](Cc2ccc(Cl)cc2Cl)NC(=O)N2CCCC(C)(O)C2)CC1)N(C)C (stereo partly drawn) [Example 125] | -8 | ≤ 100 | – |
| CC[C@H](COc1cccnc1C1CCN(C(=O)[C@@H](Cc2ccc(Cl)cc2Cl)NC(=O)N2CCC[C@H]2C(C)(C)O)CC1)N(C)C [Example 126] | -8 | ≤ 100 | – |
| CC[C@H](COc1cccnc1C1CCN(C(=O)[C@@H](Cc2ccc(Cl)cc2Cl)NC(=O)N2CC[C@H]2CO)CC1)N(C)C [Example 127] | -3 | ≤ 100 | – |
| CC[C@H](COc1cccnc1C1CCN(C(=O)[C@@H](Cc2ccc(Cl)cc2Cl)NC(=O)N2CCC(O)(C(F)(F)F)C2)CC1)N(C)C (stereo partly drawn) [Example 128] | -8 | ≤ 100 | – |
| CC[C@H](COc1cccnc1C1CCN(C(=O)[C@@H](Cc2ccc(Cl)cc2Cl)NC(=O)N2CC(O)(C(F)(F)F)C2)CC1)N(C)C [Example 129] | -5 | ≤ 100 | – |
| CC[C@H](COc1cccnc1C1CCN(C(=O)[C@@H](Cc2ccc(Cl)cc2Cl)NC(=O)N2CCC(O)(CC3CC3)C2)CC1)N(C)C (stereo partly drawn) [Example 130] | -2 | ≤ 100 | – |
| CC[C@H](COc1cccnc1C1CCN(C(=O)[C@@H](Cc2ccc(Cl)cc2Cl)NC(=O)N2CC[C@@H](N)C2)CC1)N(C)C [Example 131] | -2 | ≤ 100 | – |
| CC[C@H](COc1cccnc1C1CCN(C(=O)[C@@H](Cc2ccc(Cl)cc2Cl)NC(=O)N2CC[C@@H](N(C)C)C2)CC1)N(C)C [Example 132] | -4 | ≤ 100 | – |
| CC[C@H](COc1cccnc1C1CCN(C(=O)[C@@H](Cc2ccc(Cl)cc2Cl)NC(=O)N(C)C2COC2)CC1)N(C)C [Example 133] | -6 | ≤ 100 | – |
| CC[C@H](COc1cccnc1C1CCN(C(=O)[C@@H](Cc2ccc(Cl)cc2Cl)NC(=O)N(C)CC2(C)COC2)CC1)N(C)C [Example 134] | -2 | ≤ 100 | – |
| CC[C@@H](CN(C)C)Oc1cccnc1C1CCN(C(=O)[C@@H](Cc2ccc(Cl)cc2Cl)NC(=O)N(C)CC)CC1 [Example 135] | 3 | ≤ 100 | – |
| CC[C@@H](CN(C)C)Oc1cccnc1C1CCN(C(=O)[C@@H](Cc2ccc(Cl)cc2Cl)NC(=O)N2CC(O)C2)CC1 [Example 136] | 10 | ≤ 100 | – |
| CC[C@@H](CN(C)C)Oc1cccnc1C1CCN(C(=O)[C@@H](Cc2ccc(Cl)cc2Cl)NC(=O)N2CC[C@H](O)C2)CC1 [Example 137] | 8 | ≤ 100 | – |
| CC[C@@H](CN(C)C)Oc1cccnc1C1CCN(C(=O)[C@@H](Cc2ccc(Cl)cc2Cl)NC(=O)N(C)CCOC)CC1 [Example 138] | 9 | ≤ 100 | – |
| CC[C@@H](CN(C)C)Oc1cccnc1C1CCN(C(=O)[C@@H](Cc2ccc(Cl)cc2Cl)NC(=O)N2CC[C@@H](O)C2)CC1 [Example 139] | -10 | ≤ 100 | – |
| CN1CCC[C@H](Oc2cccnc2C2CCN(C(=O)[C@@H](Cc3ccc(Cl)cc3Cl)NC(=O)N3CC[C@H](O)C3)CC2)C1 [Example 141] | -3 | ≤ 100 | – |
| COCCN(C)C(=O)N[C@H](Cc1ccc(Cl)cc1Cl)C(=O)N1CCC(c2ncccc2O[C@H]2CCCN(C)C2)CC1 [Example 142] | -32 | ≤ 100 | ≤ 100 |
| CN1CCC[C@H](Oc2cccnc2C2CCN(C(=O)[C@@H](Cc3ccc(Cl)cc3Cl)NC(=O)N3CC[C@@H](O)C3)CC2)C1 [Example 143] | -1 | ≤ 100 | – |
| CN1CCN(Cc2cc(F)cnc2C2CCN(C(=O)[C@@H](Cc3ccc(Cl)cc3Cl)NC(=O)N3CC(O)C3)CC2)CC1 [Example 144] | 2 | ≤ 100 | – |
